# According to patent publication US10947251B2, “Therapeutic compounds and methods of use thereof” (GENENTECH, INC., priority 2018, dated 2021):
# Key:
# hNav1.7 [1] = target: T1, hNav1.7 (Homo sapiens (Human), UniProt Q15858); experiment: Tritiated compound binding to membranes from cells heterologously expressing hNav1.7 and the β1 subunit (LBA); conditions: competitive binding vs [3H]compound, membranes with hNav1.7 and β1 subunit; read-out: Nav1.7 LBA EVO IC50
# Experimental: Example 39A. Tritiated Compound Binding to Membranes Isolated from Cells that Heterologously Express hNav1.7 and the β1 Subunit
# Preparation of membranes containing recombinantly expressed sodium channels: Frozen recombinant cell pellets were thawed on ice and diluted to 4 times the cell pellet weight with ice cold 50 mM Tris HCl, pH 7.4 buffer. The cell suspensions were homogenized on ice using a motorized glass dounce homogeniser. Homogenates were further diluted 8.4 times with ice cold 50 mM Tris HCl, pH 7.4 buffer and then centrifuged at 200×g at 4° C. for 15 min. The supernatants were collected and centrifuged at 10000×g at 4° C. for 50 min. The pellets were then re-suspended in 100 mM NaCl, 20 mM Tris HCl, pH 7.4 buffer containing 1% v/v protease inhibitors (Calbiochem) and re-homogenized on ice. The homogenized membranes were then processed through a syringe equipped with a 26 gauge needle. Protein concentrations were determined by Bradford Assay and the membranes were stored at −80° C.
# Saturation experiments. A competitive NaV1.7 inhibitor having a methyl group was tritiated. Three tritiums were incorporated in place of methyl hydrogens to generate [^3H]compound. Binding of this radioligand was performed in 5 mL borosilicate glass test tubes at room temperature. Binding was initiated by adding membranes to increasing concentrations of [^3H]compound in 100 mM NaCl, 20 mM Tris HCl, pH 7.4 buffer containing 0.01% w/v bovine serum albumin (BSA) for 18 h. Non-specific binding was determined in the presence of 1 μM unlabeled compound. After 18 h, the reactants were filtered through GF/C glass fiber filters presoaked in 0.5% w/v polyethylene imine. Filters were washed with 15 mL ice cold 100 mM NaCl, 20 mM Tris HCl, pH7.4 buffer containing 0.25% BSA to separate bound from free ligand. [^3H]compound bound to filters was quantified by liquid scintillation counting.
# Binding reactions were performed in 96-well polypropylene plates at room temperature for 18 h. In 360 μL, membranes were incubated with 100 pM [^3H]compound and increasing concentrations of Test Compound. Non-specific binding was defined in the presence of 1 μM unlabeled compound. Reactions were transferred and filtered through 96-well glass fiber/C filter plates presoaked with 0.5% polyethylene imine. The filtered reactions were washed 5 times with 200 μL ice cold buffer containing 0.25% BSA. Bound radioactivity was determined by liquid scintillation counting.
# For saturation experiments, non-specific binding was subtracted from total binding to provide specific binding and these values were recalculated in terms of pmol ligand bound per mg protein. Saturation curves were constructed and dissociation constants were calculated using the single site ligand binding model: Beq=(Bmax*X)/(X+Kd), where Beq is the amount of ligand bound at equilibrium, Bmax is the maximum receptor density, Kd is the dissociation constant for the ligand, and X is the free ligand concentration. For competition studies percent inhibition was determined and IC50 values were calculated using a 4 parameter logistic model (% inhibition=(A+((B−A)/(1+((x/C)^D)))) using XLfit, where A and B are the maximal and minimum inhibition respectively, C is the IC50 concentration and D is the (Hill) slope.
# Example 39B. Tritiated Compound Binding to Membranes Isolated from Cells that Heterologous Express hNav1.7 and the β1 Subunit
# Following the procedure described in Example 39A, and making modifications as required to: centrifuge supernatants at 100000×g instead of 10000×g; re-suspend pellets in a buffer containing 0.01% BSA in addition to 100 mM NaCl, 20 mM Tris HCl, pH 7.4 buffer, and 1% v/v […]; and storing membranes at −80° C. in single use aliquots instead of pooled.
# Saturation experiments: Following the procedure described in Example 243A, and making modifications as required to incubate [3H]compound for 3 hours instead of 18 hours. […]
# hNav1.7 [2] = target: T1, hNav1.7; experiment: Electrophysiological assay (EP), voltage clamp on Syncropatch 384PE; assay type: cell-based; conditions: CHO cells expressing Nav1.7, holding potential −50 mV, 7.5 min compound incubation; read-out: EP_SP hNav1.7 EVO IC50
# Text: Example 39C. Electrophysiological Assay (EP) (In Vitro Assay)
# Patch voltage clamp electrophysiology allows for the direct measurement and quantification of block of voltage-gated sodium channels (NaV's), and allows the determination of the time- and voltage-dependence of block which has been interpreted as differential binding to the resting, open, and inactivated states of the sodium channel (Hille, B., Journal of General Physiology (1977), 69: 497-515).
# The following voltage clamp electrophysiology studies were performed on representative compounds using cells heterologously expressing Nav1.7 or Nav1.5 channels. cDNAs for Nav1.7 (NM_002977) and Nav1.5 (AC137587) were stably expressed in Chinese Hamstr Ovary (CHO) cells and CHL (Chinese Hamster Lung) cells respectively. Sodium currents were measured in the whole-cell configuration using Syncropatch 384PE (Nanlon Technologies, Germany). 1NPC®-384 chips with custom medium resistance and single hole mode are used. Internal solution consists of (in mM): 110 […], 10 CsCl, 20 EGTA, and 10 Hepes (pH adjusted to 7.2); and external solution contains (in mM): 60 NMDG, 80 NaCl, 4 KCl, 1 MgCl2, 2 CaCl2, 2 D-Glucose monohydrate, 10 Hepes (pH adjusted to 7.4 with NaOH).
# After system flushing, testing compounds are dissolved in external solution containing 0.1% Pluronic F-127. The chip is moved into the measuring head and the instrument primes the chip with external and internal solutions. 10 l cells are added to the chip from a cell hotel, and a negative pressure of −50 mBar is applied to form a seal. Following treatment with seal enhancer solution and wash-off with external solution, negative pressure of −250 mbar is applied for 1 second to achieve the whole-cell configuration, followed by three washing steps in external solution. 20 µl of compounds is added to 40 µl in each well (1:3 dilution of compounds), and after mixing, 20 l is removed so the volume is retained at 40 ul. After approximately 13 minutes recordings, 20 µl/well of 2 uM TTX, or 333 uM Tetracaine (for Nav1.5) is added to achieve full block.
# For voltage protocol, an holding potential of −50 mV is applied during the whole experiment. A depolarizing step is applied to −10 mV for 10 ms, followed by a hyperpolarization step to −150 mV for 20 ms to allow channel recovery from inactivation. A second depolarizing step is applied from −150 mV to −10 mV for 10 ms, where currents were measured to derive blocking effects of compounds. Inhibition is determined based on 7.5 min of compound incubation.
SMILES,IC50 (hNav1.7 [1]),IC50 (hNav1.7 [2])
"COc1cc(-c2cccc(C(F)(F)F)c2)ccc1N1C(=O)CO[C@H]2CN(S(=O)(=O)Nc3ccon3)CC[C@@H]21 [Example 18, (4aS,8aS)-N-(isoxazol-3-yl)-1-(3-methoxy-3′-(trifluoromethyl)-[1,1′-biphenyl]-4-yl)-2-oxohexahydro-1H-pyrido[3,4-b][1,4]oxazine-6(7H)-sulfonamide]",346 nM,5.86 nM
"COc1cc(-c2cccc(C(F)F)c2)c(F)cc1N1C(=O)CO[C@H]2CN(S(=O)(=O)Nc3ccon3)CC[C@@H]21 [Example 16, (4aS,8aS)-1-(3′-(difluoromethyl)-2-fluoro-5-methoxy-[1,1′-biphenyl]-4-yl)-N-(isoxazol-3-yl)-2-oxohexahydro-1H-pyrido[3,4-b][1,4]oxazine-6(7H)-sulfonamide]",1390 nM,49.5 nM
"COc1cc(-c2cccc(C(F)(F)F)c2)ccc1N1C(=O)CO[C@@H]2CN(S(=O)(=O)Nc3ccon3)CC[C@H]21 [Example 17, (4aR,8aR)-N-(isoxazol-3-yl)-1-(3-methoxy-3′-(trifluoromethyl)-[1,1′-biphenyl]-4-yl)-2-oxohexahydro-1H-pyrido[3,4-b][1,4]oxazine-6(7H)-sulfonamide]",214 nM,6.03 nM
"COc1cc(-c2cccc(OC(F)(F)F)c2)c(F)cc1N1CCO[C@@H]2CN(S(=O)(=O)Nc3ccon3)CC[C@H]21 [Example 31, (4aR,8aR)-1-(2-fluoro-5-methoxy-3′-(trifluoromethoxy)-[1,1′-biphenyl]-4-yl)-N-(isoxazol-3-yl)hexahydro-H-pyrido[3,4-b][1,4]oxazine-6(7H)-sulfonamide]",128 nM,5.98 nM
"COc1cc(-c2cc(F)cc(C(F)(F)F)c2)c(F)cc1N1C(=O)CO[C@@H]2CN(S(=O)(=O)Nc3ccon3)CC[C@H]21 [Example 5, (4aR,8aR)-1-(2,3′-difluoro-5-methoxy-5′-(trifluoromethyl)-[1,1′-biphenyl]-4-yl)-N-(isoxazol-3-yl)-2-oxohexahydro-1H-pyrido[3,4-b][1,4]oxazine-6(7H)-sulfonamide]",79 nM,2.79 nM
"COc1cc(-c2cccc(Cl)c2)c(F)cc1N1C(=O)CO[C@H]2CN(S(=O)(=O)Nc3ccon3)CC[C@@H]21 [Example 14, (4aS,8aS)-1-(3′-chloro-2-fluoro-5-methoxy-[1,1′-biphenyl]-4-yl)-N-(isoxazol-3-yl)-2-oxohexahydro-1H-pyrido[3,4-b][1,4]oxazine-6(7H)-sulfonamide]",332 nM,7.21 nM
"COc1cc(-c2cccc(C(F)(F)F)c2)c(F)cc1N1C(=O)CC[C@@H]2CN(S(=O)(=O)Nc3ccon3)CC[C@H]21 [Example 35, (4aR,8aR)-1-(2-fluoro-5-methoxy-3′-(trifluoromethyl)-[1,1′-biphenyl]-4-yl)-N-(isoxazol-3-yl)-2-oxooctahydro-1,6-naphthyridine-6(2H)-sulfonamide]",49.3 nM,2.88 nM
"COc1nc(-c2cccc(C(F)(F)F)c2)c(F)cc1N1C(=O)CO[C@@H]2CN(S(=O)(=O)Nc3ccon3)CC[C@H]21 [Example 21, (4aR,8aR)-1-(5-fluoro-2-methoxy-6-(3-(trifluoromethyl)phenyl)pyridin-3-yl)-N-(isoxazol-3-yl)-2-oxohexahydro-1H-pyrido[3,4-b][1,4]oxazine-6(7H)-sulfonamide]",2000 nM,47.5 nM
"COc1cc(-c2cccc(C(F)(F)F)c2)c(F)cc1N1C(=O)CO[C@H]2CN(S(=O)(=O)Nc3ccon3)CC[C@@H]21 [Example 4, (4aS,8aS)-1-(2-fluoro-5-methoxy-3′-(trifluoromethyl)-[1,1′-biphenyl]-4-yl)-N-(isoxazol-3-yl)-2-oxohexahydro-1H-pyrido[3,4-b][1,4]oxazine-6(7H)-sulfonamide]",60 nM,3.52 nM
"COc1cc(-c2cccc(C(F)(F)F)c2)c(F)cc1N1C(=O)CC[C@H]2CN(S(=O)(=O)Nc3ccon3)CCC21 (stereo in doubt) [Example 37, (4aS,8aR)-1-(2-fluoro-5-methoxy-3′-(trifluoromethyl)-[1,1′-biphenyl]-4-yl)-N-(isoxazol-3-yl)-2-oxooctahydro-1,6-naphthyridine-6(2H)-sulfonamide]",761 nM,12.9 nM
"COc1cc(-c2cccc(C(F)(F)F)c2)c(F)cc1N1CCO[C@H]2CN(S(=O)(=O)Nc3ccncn3)CC[C@@H]21 [Example 28, (4aS,8aS)-1-(2-fluoro-5-methoxy-3′-(trifluoromethyl)-[1,1′-biphenyl]-4-yl)-N-(pyrimidin-4-yl)hexahydro-1H-pyrido[3,4-b][1,4]oxazine-6(7H)-sulfonamide]",26.3 nM,2.1 nM
"COc1cc(-c2cccc(C(F)(F)F)c2)cc(F)c1N1C(=O)CO[C@H]2CN(S(=O)(=O)Nc3ccon3)CC[C@@H]21 [Example 20, (4aS,8aS)-1-(3-fluoro-5-methoxy-3′-(trifluoromethyl)-[1,1′-biphenyl]-4-yl)-N-(isoxazol-3-yl)-2-oxohexahydro-1H-pyrido[3,4-b][1,4]oxazine-6(7H)-sulfonamidede]",2000 nM,39.8 nM
"COc1cc(-c2cccc(C(F)(F)F)c2)c(F)cc1N1C(=O)CC[C@@H]2CN(S(=O)(=O)Nc3ccon3)CC[C@@H]21 [Example 38, (4aR,8aS)-1-(2-fluoro-5-methoxy-3′-(trifluoromethyl)-[1,1′-biphenyl]-4-yl)-N-(isoxazol-3-yl)-2-oxooctahydro-1,6-naphthyridine-6(2H)-sulfonamide]",641 nM,10.7 nM
